Measurements from ChEMBL document CHEMBL1909046, “DrugMatrix in vitro pharmacology data”.

Legend:
[1] = DRUGMATRIX: Phosphodiesterase PDE3 enzyme inhibition (substrate: [3H]cAMP + cAMP); assay type: tissue-based, Homo sapiens; settings: platelet, Not Active = under 50% inhibition at 10 µM
Cytochrome P450 2E1 = Cytochrome P450 2E1 (Homo sapiens, UniProt P05181); settings: bti-tn-5b1-4; further: in other assays of this panel Not Active means under 50% inhibition at 10 µM
D(1A) dopamine receptor = D(1A) dopamine receptor (Homo sapiens, UniProt P21728); assay: DRUGMATRIX: Dopamine D1 radioligand binding (ligand: [3H] SCH-23390); assay type: cell membranes, CHO, Membrane; settings: cho; Not Active = under 50% inhibition at 10 µM
[2] = target: T1, Alpha-1B adrenergic receptor (Rattus norvegicus, UniProt P15823); assay: DRUGMATRIX: Alpha-1B adrenergic receptor radioligand binding (ligand: prazosin); assay type: cell membranes, Wistar, Liver, Membrane; settings: Not Active = under 50% inhibition at 10 µM
T1 sequence (P15823 whole entry): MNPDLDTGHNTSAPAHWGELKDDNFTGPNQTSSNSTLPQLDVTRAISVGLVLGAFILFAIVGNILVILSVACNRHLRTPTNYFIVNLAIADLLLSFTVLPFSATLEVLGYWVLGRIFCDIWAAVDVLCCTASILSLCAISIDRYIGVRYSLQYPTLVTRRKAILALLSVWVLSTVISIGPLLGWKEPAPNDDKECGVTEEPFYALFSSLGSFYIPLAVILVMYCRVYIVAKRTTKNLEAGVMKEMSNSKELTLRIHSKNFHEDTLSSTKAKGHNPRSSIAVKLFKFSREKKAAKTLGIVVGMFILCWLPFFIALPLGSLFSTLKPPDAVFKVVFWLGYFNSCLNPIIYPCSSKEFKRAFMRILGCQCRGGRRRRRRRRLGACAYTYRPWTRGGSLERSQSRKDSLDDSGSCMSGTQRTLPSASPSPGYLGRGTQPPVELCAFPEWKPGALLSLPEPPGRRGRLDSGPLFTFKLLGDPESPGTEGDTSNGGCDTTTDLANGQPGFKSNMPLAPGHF

[3] = target: Protein kinase C alpha type (Homo sapiens, UniProt P17252); assay type: cell-based; settings: sf9;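 further: inhibition of PKCalpha kinase activity measured in an enzyme assay with histone as the phosphorylation substrate; in other assays of this panel Not Active means under 50% inhibition at 10 µM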
Substance-P receptor = Substance-P receptor (Homo sapiens, UniProt P25103); assay type: cell membranes, CHO, Membrane; settings: cho; further: in other assays of this panel Not Active means under 50% inhibition at 10 µM
Cathepsin G = target: T2, Cathepsin G (Homo sapiens, UniProt P08311); assay type: tissue-based; settings: neutrophil;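 further: inhibition of Cathepsin G enzyme activity, tested on an AMC-conjugated peptide substrate; in other assays of this panel Not Active means under 50% inhibition at 10 µM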
T2 sequence (P08311 whole entry): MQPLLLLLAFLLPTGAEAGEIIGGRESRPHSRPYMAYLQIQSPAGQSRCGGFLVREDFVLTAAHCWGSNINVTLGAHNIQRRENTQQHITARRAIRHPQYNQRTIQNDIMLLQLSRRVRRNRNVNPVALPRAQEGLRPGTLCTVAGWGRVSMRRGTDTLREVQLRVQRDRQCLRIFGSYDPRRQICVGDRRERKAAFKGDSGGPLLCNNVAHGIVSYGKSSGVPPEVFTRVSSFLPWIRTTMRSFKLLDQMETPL

D(1A) dopamine receptor, sequence (P21728 whole entry): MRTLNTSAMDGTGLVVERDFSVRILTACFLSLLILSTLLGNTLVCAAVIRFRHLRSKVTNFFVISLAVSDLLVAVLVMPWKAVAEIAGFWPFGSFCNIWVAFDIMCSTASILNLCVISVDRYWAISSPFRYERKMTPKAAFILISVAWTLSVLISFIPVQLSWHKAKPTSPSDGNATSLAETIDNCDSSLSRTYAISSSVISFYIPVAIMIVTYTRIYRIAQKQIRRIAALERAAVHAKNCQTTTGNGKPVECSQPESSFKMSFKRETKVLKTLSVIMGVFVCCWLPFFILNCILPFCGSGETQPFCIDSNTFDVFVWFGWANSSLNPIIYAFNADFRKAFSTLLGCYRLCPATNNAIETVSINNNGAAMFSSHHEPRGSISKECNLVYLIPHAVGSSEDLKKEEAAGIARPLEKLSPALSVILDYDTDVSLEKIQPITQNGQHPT
Substance-P receptor, sequence (P25103 whole entry): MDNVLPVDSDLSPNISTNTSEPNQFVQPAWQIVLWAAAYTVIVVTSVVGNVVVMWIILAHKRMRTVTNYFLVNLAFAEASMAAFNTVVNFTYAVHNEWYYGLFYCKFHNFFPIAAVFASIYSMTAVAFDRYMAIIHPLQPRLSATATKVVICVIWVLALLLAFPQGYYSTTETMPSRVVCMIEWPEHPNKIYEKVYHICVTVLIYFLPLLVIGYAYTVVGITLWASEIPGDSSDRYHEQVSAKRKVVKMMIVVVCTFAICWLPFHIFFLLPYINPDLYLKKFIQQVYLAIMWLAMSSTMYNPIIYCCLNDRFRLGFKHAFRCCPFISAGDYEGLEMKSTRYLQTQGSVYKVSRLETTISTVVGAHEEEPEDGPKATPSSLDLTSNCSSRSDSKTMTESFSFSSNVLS
Cytochrome P450 2E1, sequence (P05181 whole entry): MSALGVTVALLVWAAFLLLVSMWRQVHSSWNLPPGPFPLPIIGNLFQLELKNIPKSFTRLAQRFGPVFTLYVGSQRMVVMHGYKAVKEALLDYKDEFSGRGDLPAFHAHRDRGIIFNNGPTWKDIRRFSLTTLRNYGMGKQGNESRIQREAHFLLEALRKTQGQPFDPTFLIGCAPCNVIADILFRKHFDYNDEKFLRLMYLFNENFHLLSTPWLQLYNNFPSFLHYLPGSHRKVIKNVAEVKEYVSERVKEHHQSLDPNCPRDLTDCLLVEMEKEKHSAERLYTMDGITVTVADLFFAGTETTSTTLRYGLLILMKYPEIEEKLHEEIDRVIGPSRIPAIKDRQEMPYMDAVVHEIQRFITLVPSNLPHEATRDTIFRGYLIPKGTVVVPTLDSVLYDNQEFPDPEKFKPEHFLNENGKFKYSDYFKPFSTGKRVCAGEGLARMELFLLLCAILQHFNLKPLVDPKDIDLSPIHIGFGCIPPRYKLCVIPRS

Structure (SMILES)	IC50 [1]	Ki [1]	IC50 (Cytochrome P450 2E1)	Ki (Cytochrome P450 2E1)	IC50 (D(1A) dopamine receptor)	IC50 [2]	IC50 [3]	IC50 (Substance-P receptor)	IC50 (Cathepsin G)	IC50 ([1]; read-out: IC50) [µM]
CCC1(C)CC(=O)NC1=O (stereo unspecified) [ETHOSUXIMIDE]	Not Active	Not Active	Not Active	Not Active	Not Active	Not Active	Not Active	Not Active	Not Active	
C#C[C@]1(OC(C)=O)CC[C@H]2[C@@H]3CCC4=C[C@@H](OC(C)=O)CC[C@@H]4[C@H]3CC[C@@]21C [ETHYNODIOL DIACETATE]	Not Active	Not Active	Not Active	Not Active	Not Active	Not Active	Not Active	Not Active	Not Active	
C=CCc1ccc(O)c(OC)c1 [EUGENOL]	Not Active	Not Active	Not Active	Not Active	Not Active	Not Active	Not Active	Not Active	Not Active	
CC(C(=O)O)c1cccc(Oc2ccccc2)c1 (stereo unspecified) [FENOPROFEN]	Not Active	Not Active	Not Active	Not Active	Not Active	Not Active	Not Active	Not Active	Not Active	
CC(C)(C)NC(=O)[C@H]1CC[C@H]2[C@@H]3CC[C@H]4NC(=O)C=C[C@]4(C)[C@H]3CC[C@]12C [FINASTERIDE]	Not Active	Not Active	Not Active	Not Active	Not Active	Not Active	Not Active	Not Active	Not Active	
Nc1ccn([C@@H]2O[C@H](CO)[C@@H](O)C2(F)F)c(=O)n1 [GEMCITABINE]	Not Active	Not Active	Not Active	Not Active	Not Active	Not Active	Not Active	Not Active	Not Active	
N=C(N)NC(=O)Cc1c(Cl)cccc1Cl [GUANFACINE]	Not Active	Not Active	Not Active	Not Active	Not Active	Not Active	Not Active	Not Active	Not Active	
Oc1c(Cl)cc(Cl)c(Cl)c1Cc1c(O)c(Cl)cc(Cl)c1Cl [HEXACHLOROPHENE]			Not Active	Not Active	Not Active	Not Active	Not Active	Not Active	Not Active	1.85
NNc1nncc2ccccc12 [HYDRALAZINE]	Not Active	Not Active	Not Active	Not Active	Not Active	Not Active	Not Active	Not Active	Not Active	
COC1=C(OC)C(=O)C(CCCCCCCCCCO)=C(C)C1=O [IDEBENONE]	Not Active	Not Active	Not Active	Not Active	Not Active	Not Active	Not Active	Not Active	Not Active	
CC(C)NNC(=O)c1ccncc1 [IPRONIAZID]	Not Active	Not Active	Not Active	Not Active	Not Active	Not Active	Not Active	Not Active	Not Active	
Cc1c(OCC(F)(F)F)ccnc1C[S+]([O-])c1nc2ccccc2[nH]1 (stereo unspecified) [LANSOPRAZOLE]	Not Active	Not Active	Not Active	Not Active	Not Active	Not Active	Not Active	Not Active	Not Active	
O=c1cc(N2CCOCC2)oc2c(-c3ccccc3)cccc12 [LY-294002]	Not Active	Not Active	Not Active	Not Active	Not Active	Not Active	Not Active	Not Active	Not Active	
COc1ccc2[nH]cc(CCNC(C)=O)c2c1 [MELATONIN]	Not Active	Not Active	Not Active	Not Active	Not Active	Not Active	Not Active	Not Active	Not Active	
NC(=O)C[S+]([O-])C(c1ccccc1)c1ccccc1 (stereo unspecified) [MODAFINIL]	Not Active	Not Active	Not Active	Not Active	Not Active	Not Active	Not Active	Not Active	Not Active	
CCN(CC)CCOCCC1=CCC2CC1C2(C)C (stereo unspecified) [MYRTECAINE]	Not Active	Not Active	Not Active	Not Active	Not Active	Not Active	Not Active	Not Active	Not Active	
O=C(O)c1cccnc1Nc1cccc(C(F)(F)F)c1 [NIFLUMIC ACID]	Not Active	Not Active	Not Active	Not Active	Not Active	Not Active	Not Active	Not Active	Not Active	
O=C(N/N=C/c1ccc([N+](=O)[O-])o1)c1cc([N+](=O)[O-])cc([N+](=O)[O-])c1O [NIFURSOL]	Not Active	Not Active	Not Active	Not Active	Not Active	Not Active	Not Active	Not Active	Not Active	
COC(=O)Nc1nc2ccc(C(=O)c3cccs3)cc2[nH]1 [NOCODAZOLE]	Not Active	Not Active	Not Active	Not Active	Not Active	Not Active	Not Active	Not Active	Not Active	
C#CC1(O)CC[C@H]2[C@@H]3CCC4=CC(=O)CC[C@@H]4[C@H]3CC[C@@]21CC (stereo partly specified) [NORGESTREL]	Not Active	Not Active	Not Active	Not Active	Not Active	Not Active	Not Active	Not Active	Not Active	
COC(=O)Nc1nc2ccc([S+]([O-])c3ccccc3)cc2[nH]1 (stereo unspecified) [OXFENDAZOLE]	Not Active	Not Active	Not Active	Not Active	Not Active	Not Active	Not Active	Not Active	Not Active	
CC(=O)O[C@H]1C(=O)[C@@]2(C)[C@H]([C@H](OC(=O)c3ccccc3)[C@]3(O)C[C@H](OC(=O)[C@H](O)[C@@H](NC(=O)c4ccccc4)c4ccccc4)C(C)=C1C3(C)C)[C@]1(OC(C)=O)CO[C@@H]1C[C@@H]2O [PACLITAXEL]	Not Active	Not Active	Not Active	Not Active	Not Active	Not Active	Not Active	Not Active	Not Active	
C[n+]1ccc(-c2cc[n+](C)cc2)cc1.[Cl-].[Cl-] [PARAQUAT DICHLORIDE]	Not Active	Not Active	Not Active	Not Active	Not Active	Not Active	Not Active	Not Active	Not Active	
